Measured values from US11203563B2, “Preparation of zinc linolenate, and application of zinc linolenate in preparing anti-helicobacter pylori drug” (NANJING MEDICAL UNIVERSITY, priority 2018, dated 2021).

How the values were obtained:
[1] = Animal toxicity, 10 times the therapeutic dose
Procedure: (1) Preparation of mice: 20 8-week-old C57BL/6 mice are randomly divided into an administration group containing 10 mice and a negative control group containing 10 mice.
(2) Intragastric administration: administration is performed with 10 times the therapeutic dose of zinc linolenate, that is, administration is performed according to 240 mg/kg per mouse, once a day for 3 consecutive days. The negative control group is administered with a PBS solution, and the number of times and dose are same as those in the administration group.
(3) Weighing of weight: the weight of mice is weighed 1 day before administration for 7 consecutive days.
(§1) (4) Efficacy test: the mice in the infection group are weighed 3 days after the drug is stopped, and the average weight is calculated. Blood is taken from the eyeballs, and the mice are sacrificed by cervical dislocation. Stomach, kidney, liver and spleen tissues are taken, pathologically sectioned and HE stained, and serum is tested for liver and kidney functions.

[2] = Blood biochemical indexes of liver and kidney functions, infected and treated mice; conditions: infected mice, therapeutic dose (omeprazole 138.2, amoxicillin 28.5, clarithromycin 14.3, zinc linolenate 24 mg/kg), intragastric, serum
Procedure: (2) Animal administration: the experimental group is intragastrically administered. The group with omeprazole is administered with omeprazole first, and then administered with other drugs 30 min later. After the mice are administered with the drugs, the mice fast for 4 hours. Calculated according to an average of 20 g/mouse of the weight of mice, the dosage is: omeprazole 138.2 mg/kg, amoxicillin 28.5 mg/kg, clarithromycin 14.3 mg/kg, and zinc linolenate 24 mg/kg, once a day for 5 consecutive times. The negative control group is administered with a PBS solution with the same dosage and number of times as above.
(3) Efficacy test: the mice in the infection group are weighed and the average weight is calculated on the 2 days after the drug is stopped. Blood is taken from the eyeballs and the mice are sacrificed by cervical dislocation. Stomach tissue is taken, and the isolation, culture and identification of Helicobacter pylori are the same as in 2.3.3 (3) and (4).
as §1

SMILES: CC/C=C\C/C=C\C/C=C\CCCCCCCC(=O)[O-].CC/C=C\C/C=C\C/C=C\CCCCCCCC(=O)[O-].[Zn+2] [zinc linolenate]
- weight of the mice ([1]; 240 mg/kg (10 times the therapeutic dose), intragastric, once a day for 3 days, weighed 7 consecutive days): does not change significantly
- Alanine aminotransferase ([1]; mouse, in vivo, 240 mg/kg): 23.33 U/L
- Aspartate aminotransferase ([1]; mouse, in vivo, 240 mg/kg): 138.33 U/L
- Blood urea nitrogen ([1]; mouse, in vivo, 240 mg/kg): 11.90 mmol/L
- Creatinine ([1]; mouse, in vivo, 240 mg/kg): 15.00 µmol/L
- Alanine aminotransferase [2]: 50.00 U/L
- Aspartate aminotransferase [2]: 192.33 U/L
- Blood urea nitrogen [2]: 14.97 mmol/L
- Creatinine [2]: 18.33 µmol/L
